Test results published in patent US12065512B2, “Cyclic peptide and a medicament, external preparation and cosmetic comprising said cyclic peptide” (Igisu Co., Ltd., priority 2015, dated 2024).
Positions of bridges follow the written chain, without caps; N, C: chain ends. No end group written: not given here.

System: skin, affected site
Assay: Cyclic peptides with amino acid replacement: effects on skin (formulations A to E = 3, 15, 30, 100, 500 μg/ml in purified water)
Type: in vivo, human
Procedure: Next, cyclic peptides with some replaced amino acid were subjected to following examination in order to confirm their effect. The methods for preparing the above cyclic peptide and confirming amino acid sequence of the prepared peptide were same as the method for preparing the cyclic peptide as described above and Mass spectroscopy method.
9.2 Confirming Effects on Skin
The obtained cyclic peptide was prepared in purified water at 3, 15, 30, 100 or 500 μg/ml and applied to affected site. Each of formulations A to E in the table indicates the concentration of the cyclic peptide at 3, 15, 30, 100 or 500 μg/ml, respectively. The absence of the effect upon the application of purified water without the peptide confirmed the effect was not a placebo effect.

[1] = chronic eczema, formulation C (30 μg/ml in purified water), once a day
[2] = eczema, formulation C (30 μg/ml in purified water), once a day
[3] = formulation C = 30 μg/ml cyclic peptide in purified water, applied to affected site, one line per subject (ID Q..), diagnosis and treatment as in the table line
[4] = roughened skin, formulation C (30 μg/ml in purified water), once a day
[5] = atopic dermatitis, formulation C (30 μg/ml in purified water), once a day

SEQ ID NO 60 (CFSRRMDRISSSTGLGC; disulfide 1-17)
Diagnostic impression on skin after application [1]: Immediately after application, erythema

SEQ ID NO 47 (CFSRKMDRISSSTGLGC; disulfide 1-17)
Diagnostic impression on skin after application [1]: Immediately after application, erythema

SEQ ID NO 63 (CFSRKMDRISSTSGIGC; disulfide 1-17)
Diagnostic impression on skin after application (eczema, formulation B (15 μg/ml in purified water), once a day): After 3 minutes, erythema and scales

SEQ ID NO 72 (CFSRRMDRISSTSGLAC; disulfide 1-17)
Diagnostic impression on skin after application [1]: Immediately after application, erythema,

SEQ ID NO 44 (CFGRKMDRISSSAGLGC; disulfide 1-17)
Diagnostic impression on skin after application [2]: After 1 minute, erythema and infiltration | Itches after application [2]: Iches were remitted | Diagnostic impression on skin after application (healthy skin, formulation B (15 μg/ml in purified water), once a day): Skin got moisturized promptly, wrinkles

SEQ ID NO 68 (CFGRRMDRISSTSGLAC; disulfide 1-17)
Diagnostic impression on skin after application [1]: Immediately after application, erythema

SEQ ID NO 69 (CFGRRMDRISSSTGIGC; disulfide 1-17)
Diagnostic impression on skin after application [2]: After 2 minutes, erythema, scales,

SEQ ID NO 18 (CFGHKMDRISSSSGLGC; disulfide 1-17)
Diagnostic impression on skin after application [3]: After 2 minutes, redness was remitted.

SEQ ID NO 64 (CFSRKMDRISSSTGIGC; disulfide 1-17)
Diagnostic impression on skin after application [1]: Immediately after application, erythema

SEQ ID NO 65 (CFSRKMDRISSSTGLAC; disulfide 1-17)
Diagnostic impression on skin after application [4]: After 1 minute, skin got moisturized and

SEQ ID NO 75 (CFSRRMDRISSSSGIAC; disulfide 1-17)
Diagnostic impression on skin after application [2]: After 2 minutes, erythema, scalesm

SEQ ID NO 53 (CFGRRMDRISSSSGLAC; disulfide 1-17)
Diagnostic impression on skin after application [2]: After 1 minute, erythema and infiltration

SEQ ID NO 61 (CFSRRMDRISSSSGIGC; disulfide 1-17)
Diagnostic impression on skin after application (chronic, formulation C (30 μg/ml in purified water), once a day): Immediately after application, erythema

SEQ ID NO 42 (CFGRKMDRISSASGLGC; disulfide 1-17)
Diagnostic impression on skin after application (acne, formulation C (30 μg/ml in purified water), once a day): After 1 minute, redness was remitted. | Itches after application (atopic dermatitis, formulation B (15 μg/ml in purified water), once a day): Iches were eliminated | Diagnostic impression on skin after application [2]: After 3 minutes, erythema and dry skin

SEQ ID NO 73 (CFSRRMDRISSSTGIGC; disulfide 1-17)
Diagnostic impression on skin after application [1]: Immdediately after application, erythema

SEQ ID NO 49 (CFSRKMDRISSSSGLAC; disulfide 1-17)
Diagnostic impression on skin after application [1]: Immediately after application, erythema

SEQ ID NO 16 (CFVRKMDRISSSSGLGC; disulfide 1-17)
Diagnostic impression on skin after application [3]: After 3 minutes, erythema was remitted.

SEQ ID NO 43 (CFGRKMDRISSSTGLGC; disulfide 1-17)
Diagnostic impression on skin after application [5]: After 2 minutes, no discomfort, felt | Itches after application [5]: After 3 minutes, | Diagnostic impression on skin after application [2]: After 1 minute, redness and infiltration | Itches after application [2]: Iches were eliminated | Diagnostic impression on skin after application (rosacae/acne, formulation C (30 μg/ml in purified water), once a day): After 7 minutes, acne was reduce and | Diagnostic impression on skin after application (roughened lips, formulation C (30 μg/ml in purified water), once a day): 1 minute after application, dry skin | Diagnostic impression on skin after application (roughened skin, formulation B (15 μg/ml in purified water), once a day): After 3 minutes, redness and dry skin

SEQ ID NO 70 (CFGRRMDRISSSTGLAC; disulfide 1-17)
Diagnostic impression on skin after application [1]: immediately after application, erythema | Diagnostic impression on skin after application [4]: Redness vanished in 30 seconds. After 1

SEQ ID NO 58 (CFGRKMDRISSSSGIAC; disulfide 1-17)
Diagnostic impression on skin after application [2]: After 2 minutes, erythema, scales,
